Measured values published in paper PMC6465078 (Molecular pharmaceutics, 2018).
Where a name gives a salt, the structure may show the parent alone.

Experiments:
[1] = biological target: T1, OSTα/β (Homo sapiens, UniProt Q86UW1); experiment: Inhibition of OSTα/β-mediated taurocholate; assay type: cell-based; details: for inhibition at 100 µM: read-out: Inhibition of OSTα/β-mediated TCA uptake; for Inhibition of OSTα/β-mediated TCA uptake (statistical significance): Methods 1-3, method not specified
T1 sequence (Q86UW1 1-340): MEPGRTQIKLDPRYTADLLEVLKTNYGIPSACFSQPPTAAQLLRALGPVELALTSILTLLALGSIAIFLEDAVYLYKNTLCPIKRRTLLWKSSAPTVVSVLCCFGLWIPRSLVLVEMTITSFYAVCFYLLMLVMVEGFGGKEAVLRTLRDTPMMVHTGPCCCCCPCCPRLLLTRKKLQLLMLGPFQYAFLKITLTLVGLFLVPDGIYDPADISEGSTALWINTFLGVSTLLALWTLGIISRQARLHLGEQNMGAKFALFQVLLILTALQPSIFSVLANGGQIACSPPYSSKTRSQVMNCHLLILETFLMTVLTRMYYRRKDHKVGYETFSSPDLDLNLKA
T1 sequence (Q86UW2 1-128 partner): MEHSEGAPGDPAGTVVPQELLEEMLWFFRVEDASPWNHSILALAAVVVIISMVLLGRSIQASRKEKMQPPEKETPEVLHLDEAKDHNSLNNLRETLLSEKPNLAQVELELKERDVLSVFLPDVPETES

[2] = biological target: T1, OSTα/β; experiment: Inhibition of OSTα/β-mediated DHEAS uptake in OSTα/β-overexpressing Flp-In 293; assay type: cell-based; details: for Inhibition of OSTα/β-mediated DHEAS uptake: inhibitor 100 µM, DHEAS 20 µM; for Maximal inhibition of OSTα/β-mediated DHEAS uptake: Method 1, up to 200 µM inhibitor; for Inhibition of OSTα/β-mediated DHEAS uptake (screening): Method 1 (10 min preincubation), test compound 100 µM
[3] = system: ABCC3; details: cited from earlier work
[4] = biological target: T1, OSTα/β; details: cell line ectopically expressing human OSTα/β; cited from earlier work
[5] = biological target: T1, OSTα/β; experiment: Inhibition of OSTα/β-mediated digoxin uptake in OSTab cells; assay type: cell-based; details: read-out: Inhibition of OSTα/β-mediated digoxin uptake
[6] = cited from earlier work
[7] = system: ABCB11; details: cited from earlier work
[8] = cited from earlier work; remark: listed apart in the source
[9] = Concentration in hepatocyte cultures; assay type: in vitro ADME; details: equivalent of ~700 ng/mg protein
[10] = system: ABCC4; details: cited from earlier work
[11] = system: OSTα/β; details: single concentration of 100–1000 μM; cited from earlier work
[12] = system: OSTα/β; details: cited from earlier work
[13] = Flp-In-293, read-out: Inhibition of OSTα/β-mediated DHEAS uptake (screening)
[14] = Flp-In-293, read-out: Inhibition of OSTα/β-mediated DHEAS uptake
[15] = Method 2 (co-incubation only), 30 s uptake

CCc1c(Cl)c(O)c(Cl)c(O)c1C(=O)O[C@H]1[C@H](O)[C@H](OC)[C@H](OC/C2=C\C=C\C[C@H](O)/C(C)=C/[C@H](CC)[C@@H](O[C@@H]3OC(C)(C)[C@@H](OC(=O)C(C)C)[C@H](O)[C@@H]3O)/C(C)=C/C(C)=C/C[C@@H]([C@@H](C)O)OC2=O)O[C@@H]1C [fidaxomicin]
Inhibition of OSTα/β-mediated TCA uptake ([1]; Method 2 (co-incubation only), inhibitor 100 µM, TCA 20 µM, 30 s uptake): > 70%
inhibition at 100 µM [1]: > 70%
inhibition at 100 µM [2, 13]: 71%
Inhibition of OSTα/β-mediated DHEAS uptake ([2]; Method 1 (10 min preincubation only), 30 s uptake): inhibited DHEAS uptake
Inhibition of ABCC3 [3]: inhibit
Inhibition of OSTα/β-mediated TCA transport [4]: inhibited
inhibition at 100 µM [5]: 90%

C[C@H](CCC(=O)NCC(=O)O)[C@H]1CC[C@H]2[C@@H]3[C@H](O)C[C@@H]4C[C@H](O)CC[C@]4(C)[C@H]3CC[C@]12C [glycochenodeoxycholate]
Maximal inhibition of OSTα/β-mediated DHEAS uptake ([2]; DHEAS 4 µM): less than 50%

C#C[C@]1(O)CC[C@H]2[C@@H]3CCc4cc(O)ccc4[C@H]3CC[C@@]21C [ethinylestradiol]
Associated cases of DILI [6]: more than 100 cases
Interaction with ABCC3 ([3]; ref Supporting Table 1): interact
Interaction with ABCB11 ([7]; ref Supporting Table 1): interact

CCCN(CCC)S(=O)(=O)c1ccc(C(=O)O)cc1 [probenecid]
inhibition at 100 µM [2, 13]: 5 to 23%

O=C1OC(c2ccc(O)c(S(=O)(=O)O)c2)(c2ccc(O)c(S(=O)(=O)O)c2)c2c(Br)c(Br)c(Br)c(Br)c21 [sulfobromophthalein]
inhibition at 100 µM [2, 13]: 5 to 23%

Cc1c(C)c2c(c(C)c1OS(=O)(=O)O)CCC(C)(COc1ccc(CC3SC(=O)NC3=O)cc1)O2 (centres unmarked) [troglitazone sulfate]
Concentration in hepatocyte cultures [8]: ~ 700 ng/mg protein
Concentration in hepatocyte cultures, molar equivalent [9]: ~ 190 µM
Inhibition of OSTα/β-mediated TCA transport [4]: inhibited
Inhibition of ABCC4 [10]: inhibits
Inhibition of ABCB11 [7]: inhibits

O=C1[C@H](CC[C@H](O)c2ccc(F)cc2)[C@@H](c2ccc(O)cc2)N1c1ccc(F)cc1 [ezetimibe]
Inhibition of OSTα/β-mediated DHEAS uptake (screening) ([2]; DHEAS 4 µM, 30 s uptake): could not be reproduced

CC(C)c1nc(N(C)S(C)(=O)=O)nc(-c2ccc(F)cc2)c1/C=C/[C@@H](O)C[C@@H](O)CC(=O)O [rosuvastatin]
Inhibition of OSTα/β-mediated DHEAS uptake (screening) ([2]; DHEAS 4 µM, 30 s uptake): did not inhibit OSTα/β

Cc1c(C)c2c(c(C)c1O)CCC(C)(COc1ccc(CC3SC(=O)NC3=O)cc1)O2 (centres unmarked) [troglitazone]
Inhibition of OSTα/β-mediated DHEAS uptake (screening) ([2]; DHEAS 4 µM, 30 s uptake): novel OSTα/β inhibitors
IC50 for inhibition of OSTα/β-mediated DHEAS uptake ([2]; Method 1, 0.125–200 µM inhibitor, DHEAS 4 µM, 30 s uptake): did not yield a consistent inhibition curve

CC[C@H](C)C(=O)O[C@H]1C[C@@H](C)C=C2C=C[C@H](C)[C@H](CC[C@@H]3C[C@@H](O)CC(=O)O3)[C@H]21 [lovastatin]
inhibition at 100 µM [2, 13]: ~21%

CC1(C)S[C@@H]2[C@H](NC(=O)[C@H](N)c3ccc(O)cc3)C(=O)N2[C@H]1C(=O)O [amoxicillin]
Inhibition of OSTα/β-mediated DHEAS uptake (screening) ([2]; DHEAS 4 µM, 30 s uptake): decreased
Associated cases of DILI [6]: more than 100 cases

C#C[C@]1(OC(C)=O)CC[C@H]2[C@@H]3CCC4=CC(=NO)CC[C@@H]4[C@H]3CC[C@@]21CC (mixture of isomers) [norgestimate]
inhibition at 100 µM [2, 13]: 35 to 64%
Maximal inhibition of OSTα/β-mediated DHEAS uptake ([2]; DHEAS 4 µM): less than 50%
Associated cases of DILI [6]: more than 100 cases

CC(=O)S[C@@H]1CC2=CC(=O)CC[C@]2(C)[C@H]2CC[C@@]3(C)[C@@H](CC[C@@]34CCC(=O)O4)[C@H]12 [spironolactone]
inhibition at 100 µM [1]: ~20%
inhibition at 100 µM [2, 14]: ~20%
Inhibition of OSTα/β-mediated DHEAS uptake [2, 15]: no inhibition
Inhibition of OSTα/β-mediated TCA and ES uptake [11]: inhibited

O=C(O)[C@H]1/C(=C/CO)O[C@@H]2CC(=O)N21 [clavulanic acid]
Inhibition of OSTα/β-mediated DHEAS uptake (screening) ([2]; DHEAS 4 µM, 30 s uptake): decreased
Associated cases of DILI [6]: more than 100 cases

C[C@H]1c2cccc(O)c2C(=O)C2=C(O)[C@]3(O)C(=O)C(C(N)=O)=C(O)[C@@H](N(C)C)[C@@H]3[C@@H](O)[C@@H]21 [doxycycline]
inhibition at 100 µM [2, 13]: ~19%

COc1ccc2c(c1)c(CC(=O)O)c(C)n2C(=O)c1ccc(Cl)cc1 [indomethacin]
Inhibition of OSTα/β-mediated TCA uptake (statistical significance) ([1]; inhibitor 100 µM, TCA 20 µM): did not reach statistical significance
inhibition at 100 µM [2, 14]: ~20%
inhibition at 100 µM [2, 13]: 5 to 23%
Inhibition of OSTα/β-mediated DHEAS uptake [2, 15]: no inhibition

CC(C)/N=c1\cc2n(-c3ccc(Cl)cc3)c3ccccc3nc-2cc1Nc1ccc(Cl)cc1 [clofazimine]
OSTα/β inhibitor identification in screen of 1,280 FDA-approved drugs [12]: OSTα/β inhibitor

C[C@H](CCC(=O)NCCS(=O)(=O)O)[C@H]1CC[C@H]2[C@@H]3CC[C@@H]4C[C@H](OS(=O)(=O)O)CC[C@]4(C)[C@H]3CC[C@]12C [TLCAS, taurolithocholic acid sulfate]
Stimulation of OSTα/β-mediated TCA uptake ([1]; Method 2 (co-incubation only), 100 µM, TCA 20 µM): ~ 25%
Inhibition of OSTα/β-mediated TCA uptake (statistical significance) ([1]; inhibitor 100 µM, TCA 20 µM): did not reach statistical significance
Inhibition of OSTα/β-mediated TCA and ES uptake [11]: inhibited

C[C@H]1O[C@@H](O[C@H]2[C@@H](O)C[C@H](O[C@H]3[C@@H](O)C[C@H](O[C@H]4CC[C@@]5(C)[C@H](CC[C@@H]6[C@@H]5C[C@@H](O)[C@]5(C)[C@@H](C7=CC(=O)OC7)CC[C@]65O)C4)O[C@@H]3C)O[C@@H]2C)C[C@H](O)[C@@H]1O [digoxin]
inhibition at 100 µM [2, 13]: 5 to 23%
